Source: patent publication US20230144436A1, “MUSCLE TARGETING COMPLEXES AND USES THEREOF FOR TREATING MYOTONIC DYSTROPHY” (Dyne Therapeutics, Inc., priority 2020, published 2023)

System: DMPK
Experiment: DMPK knockdown by transfected antisense oligonucleotides in DM1 C15 myotubes at 0.5 nM and 50 nM
Type: cell-based
Settings: 72 hours; for Normalized DMPK Remaining: relative to vehicle control = 1.00
Method: Two hundred and thirty-six oligonucleotides for targeting DMPK were generated using in silico analysis. Each individual oligonucleotide was evaluated for their ability to target DMPK in cellulo at two doses—0.5 nM (low dose) and 50 nM (high dose).
Briefly, DM1 C15 immortalized myoblasts were cultured in T-75 flasks until near confluency (˜80% confluent). Myoblasts were then disrupted with trypsin and seeded into 96-well microplates at a density of 50,000 cells/well. Cells were allowed to recover overnight before the growth media was washed out and replaced with a no-serum media to induce differentiation into myotubes. Differentiation proceeded for seven days prior to treatment with DMPK-targeting oligonucleotides.
On day seven following induction of differentiation, DM1 C15 myotubes were transfected with an individual oligonucleotide using 0.3 μL of Lipofectamine MessengerMax per well. All oligonucleotides were tested at both 0.5 nM and 50 nM final concentrations in biological triplicates. After treatment with oligonucleotides, cells were incubated for 72 hours prior to being harvested for total RNA. cDNA was synthesized from the total RNA extracts and qPCR was performed to determine expression levels of DMPK in technical quadruplicate. All qPCR data were analyzed using a traditional […] method and were normalized to a plate-based negative control that comprised cells treated with vehicle control (0.3 μL/well Lipofectamine MessengerMax without any oligonucleotide). Results from these experiments are shown in Table 10. ‘Normalized DMPK Remaining’ for each antisense oligonucleotide in Table 10 refers to the expression level of DMPK in cell treated with said antisense oligonucleotide relative to the negative control that comprised cells treated with vehicle control (wherein the expression level of the negative control has been normalized to equal 1.00)

[1] = 0.5 nM oligonucleotide, qPCR, relative to vehicle control
[2] = 50 nM oligonucleotide, qPCR, relative to vehicle control

Substance	Percent DMPK Reduction [1] [%]	Normalized DMPK Remaining (0.5 nM oligonucleotide, qPCR)	Percent DMPK Reduction [2] [%]	Normalized DMPK Remaining (50 nM oligonucleotide, qPCR)	Percent DMPK Reduction (0.5 nM oligonucleotide) [%]	Normalized DMPK Remaining (0.5 nM oligonucleotide)	Percent DMPK Reduction (50 nM oligonucleotide) [%]	Normalized DMPK Remaining (50 nM oligonucleotide)
333 (AUGGCAUACACCUGGCCCGU; chemistry not given here) [compound 333]	14.31	0.86	49.63	0.50				
304 (UUCCCGAGUAAGCAGGCAGA; chemistry not given here) [compound 304]	31.49	0.69	49.81	0.50				
354 (AGACAAUAAAUACCGAGGAA; chemistry not given here) [compound 354]	29.37	0.71	48.20	0.52				
343 (CGUAGUUGACUGGCGAAGUU; chemistry not given here) [compound 343]	25.26	0.75	61.52	0.38				
251 (CUCGGCCGGAAUCCGCUCCC; chemistry not given here) [compound 251]	28.64	0.71	64.75	0.35				
418 (GUAGUUGACUGGCGAAGUUC; chemistry not given here) [compound 418]					7.50	0.93	45.33	0.55
268 (UCAGUGCAUCCAAAACGUGG; chemistry not given here) [compound 268]	15.76	0.84	42.06	0.58				
254 (UUGUCGGGUUUGAUGUCCCU; chemistry not given here) [compound 254]	34.16	0.66	55.56	0.44				
391 (UCACCAACACGUCCCUCUCC; chemistry not given here) [compound 391]					47.12	0.53	84.09	0.16
375 (CGGCUCAGGCUCUGCCGGGU; chemistry not given here) [compound 375]	17.97	0.82	69.03	0.31				
428 (UUGAUGUCCCUGUGCACGU; chemistry not given here) [compound 428]					6.92	0.93	43.07	0.57
380 (UGCCCAUAGAACAUUUCAUA; chemistry not given here) [compound 380]					7.67	0.92	34.56	0.65
422 (GUAGUUCUCAUCCUGGAAGG; chemistry not given here) [compound 422]					7.43	0.93	55.09	0.45
352 (AAAUACCGAGGAAUGUCGGG; chemistry not given here) [compound 352]	11.25	0.89	50.91	0.49				
421 (GCGAAUACACCCAGCGCCCA; chemistry not given here) [compound 421]					6.94	0.93	69.72	0.30
255 (GUUGCGGGUUUGAUGUCCC; chemistry not given here) [compound 255]	33.31	0.67	61.07	0.39				
262 (UGUCGGGUUUGAUGUCCCUG; chemistry not given here) [compound 262]	30.09	0.70	68.14	0.32				
267 (CUUGUUCAUGAUCUUCAUGG; chemistry not given here) [compound 267]	16.06	0.84	49.47	0.51				
350 (ACUUGCUCAGCAGUGUCAGC; chemistry not given here) [compound 350]	27.84	0.72	60.71	0.39				
461 (CGGAGACCAUCCCAGUCGAG; chemistry not given here) [compound 461]					14.08	0.86	79.93	0.20
366 (UUUGGGCAGAUGGAGGGCCU; chemistry not given here) [compound 366]	35.14	0.65	70.00	0.30				
392 (UGCCUGCAGCAACUCCAUCC; chemistry not given here) [compound 392]					13.99	0.86	49.75	0.50
423 (GGCUCAGGCUCUGCCGGGUG; chemistry not given here) [compound 423]					7.38	0.93	65.82	0.34
339 (CUCCGCCAGGUAGAAGCGCG; chemistry not given here) [compound 339]	30.22	0.70	78.14	0.22				
480 (AGGGAAAGCGCCUCCGAUAG; chemistry not given here) [compound 480]					-1.12	1.01	75.50	0.25
273 (CUGUGCACGUAGCCAAGCCG; chemistry not given here) [compound 273]	25.67	0.74	70.10	0.30				
449 (CCUCUGCCUCGCGUAGUUGA; chemistry not given here) [compound 449]					7.39	0.93	85.33	0.15
396 (ACAGACAAUAAAUACCGAGG; chemistry not given here) [compound 396]					-3.95	1.04	74.02	0.26
382 (AUGUCCCUGUGCACGUAGCC; chemistry not given here) [compound 382]					16.78	0.83	49.29	0.51
